Data published in ChEMBL document CHEMBL5390277, “Development of N-Terminally Modified Variants of the CXCR4-Antagonistic Peptide EPI-X4 for Enhanced Plasma Stability” (J Med Chem, 2023).
Peptide text beside a SMILES is read from it.

Assays:
[1] = biological target: T1, C-X-C chemokine receptor type 4 (Homo sapiens, UniProt P61073); assay: Displacement of 12G5 mAb from CXCR4 in human SUP-T1 cells incubated for 2 hrs by flow cytometry analysis; type: cell-based
[2] = test system: Human immunodeficiency virus 1; assay: Antiviral activity against HIV-1 NL4-3 infected in human TZM-bl cells assessed as inhibition of viral replication preincubated for 15 mins followed by viral infection and measured after 4320 mins by beta-gal screening assay; type: functional, organism-based; settings: Human immunodeficiency virus 1, NL4-3, TZM
[3] = biological target: T1, C-X-C chemokine receptor type 4; assay: Antagonist activity at CXCR4 in human SUP-T1 cells assessed as inhibition of CXCL12-induced ERK phosphorylation preincubated with 15 mins followed by CXCL12 stimulation and measured after 12 mins by flow cytometry analysis; type: functional, cell-based
SUP-T1 = assay: Inhibition of cell migration in human SUP-T1 cells assessed as inhibition of CXCL12 mediated cell migration incubated for 4 hrs in presence of chemoattractant, CXCL12 by Transwell based CellTiter-Glo-chemotaxis assay; type: functional

T1 sequence (P61073 whole entry): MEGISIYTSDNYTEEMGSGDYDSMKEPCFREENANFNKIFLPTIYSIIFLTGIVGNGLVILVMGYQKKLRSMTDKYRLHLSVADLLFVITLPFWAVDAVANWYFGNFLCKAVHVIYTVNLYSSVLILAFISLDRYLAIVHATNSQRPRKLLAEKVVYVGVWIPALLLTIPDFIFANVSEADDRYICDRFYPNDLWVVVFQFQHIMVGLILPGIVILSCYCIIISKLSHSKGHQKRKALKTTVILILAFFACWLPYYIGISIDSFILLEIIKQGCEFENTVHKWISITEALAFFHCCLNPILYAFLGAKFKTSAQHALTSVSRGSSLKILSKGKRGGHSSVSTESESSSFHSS

SMILES	IC50 [1]	IC50 [2]	IC50 [3]	inhibition (SUP-T1)
CC[C@H](C)[C@H](NC(C)=O)C(=O)N[C@@H](CC(C)C)C(=O)N[C@@H](CCCNC(=N)N)C(=O)N[C@@H](Cc1c[nH]c2ccccc12)C(=O)N[C@@H](CO)C(=O)N[C@@H](CCCNC(=N)N)C(=O)N[C@@H](CCCCN)C(=O)N[C@@H](CC(C)C)C(=O)N1CCC[C@H]1C(=O)N[C@@H](CS)C(=O)N[C@H](C(=O)N[C@@H](CO)C(=O)O)C(C)C	2660 nM	1660 nM	42100 nM	
CC(C)C[C@H](NC(=O)[C@@H](N)C(C)C)C(=O)N[C@@H](CCCNC(=N)N)C(=O)N[C@@H](Cc1c[nH]c2ccccc12)C(=O)N[C@@H](CO)C(=O)N[C@@H](CCCNC(=N)N)C(=O)N[C@@H](CCCCN)C(=O)N[C@@H](CC(C)C)C(=O)N1CCC[C@H]1C(=O)N[C@@H](CS)C(=O)N[C@H](C(=O)N[C@@H](CO)C(=O)O)C(C)C	298 nM	214 nM	4330 nM	
CC[C@@H](C)[C@@H](NC(C)=O)C(=O)N[C@@H](CC(C)C)C(=O)N[C@@H](CCCNC(=N)N)C(=O)N[C@@H](Cc1c[nH]c2ccccc12)C(=O)N[C@@H](CO)C(=O)N[C@@H](CCCNC(=N)N)C(=O)N[C@@H](CCCCN)C(=O)N[C@@H](CC(C)C)C(=O)N1CCC[C@H]1C(=O)N[C@@H](CS)C(=O)N[C@H](C(=O)N[C@@H](CO)C(=O)O)C(C)C	7720 nM	> 10000 nM	17200 nM	
CSCC[C@H](NC(=O)[C@H](CCCCN)NC(=O)[C@H](CCCNC(=N)N)NC(=O)[C@H](CO)NC(=O)[C@H](Cc1c[nH]c2ccccc12)NC(=O)[C@H](CCCNC(=N)N)NC(=O)[C@@H](CC(C)C)NC(=O)[C@@H](N)CCSC)C(=O)N1CCC[C@H]1C(=O)N[C@@H](CS)C(=O)N[C@H](C(=O)N[C@@H](CO)C(=O)O)C(C)C	824 nM			
CSCC[C@H](NC(=O)[C@H](N)Cc1ccccc1)C(=O)N[C@@H](CCCNC(=N)N)C(=O)N[C@@H](Cc1c[nH]c2ccccc12)C(=O)N[C@@H](CO)C(=O)N[C@@H](CCCNC(=N)N)C(=O)N[C@@H](CCCCN)C(=O)N[C@@H](CCSC)C(=O)N1CCC[C@H]1C(=O)N[C@@H](CS)C(=O)N[C@H](C(=O)N[C@@H](CO)C(=O)O)C(C)C	1470 nM	1690 nM	> 100000 nM	Dose-Dependent Effect
CC[C@H](C)[C@H](N)C(=O)N[C@H](CC(C)C)C(=O)N[C@@H](CCCNC(=N)N)C(=O)N[C@@H](Cc1c[nH]c2ccccc12)C(=O)N[C@@H](CO)C(=O)N[C@@H](CCCNC(=N)N)C(=O)N[C@@H](CCCCN)C(=O)N[C@@H](CC(C)C)C(=O)N1CCC[C@H]1C(=O)N[C@@H](CS)C(=O)N[C@H](C(=O)N[C@@H](CO)C(=O)O)C(C)C	1730 nM	436 nM	> 100000 nM	
CSCC[C@H](NC(=O)[C@H](CCCCN)NC(=O)[C@H](CCCNC(=N)N)NC(=O)[C@H](CO)NC(=O)[C@H](Cc1c[nH]c2ccccc12)NC(=O)[C@H](CCCNC(=N)N)NC(=O)[C@H](CC(C)C)NC(=O)[C@H](CO)NC(C)=O)C(=O)N1CCC[C@H]1C(=O)N[C@@H](CS)C(=O)N[C@H](C(=O)N[C@@H](CO)C(=O)O)C(C)C	16300 nM	4060 nM	> 100000 nM	
CSCC[C@@H](NC(C)=O)C(=O)N[C@@H](CC(C)C)C(=O)N[C@@H](CCCNC(=N)N)C(=O)N[C@@H](Cc1c[nH]c2ccccc12)C(=O)N[C@@H](CO)C(=O)N[C@@H](CCCNC(=N)N)C(=O)N[C@@H](CCCCN)C(=O)N[C@@H](CC(C)C)C(=O)N1CCC[C@H]1C(=O)N[C@@H](CS)C(=O)N[C@H](C(=O)N[C@@H](CO)C(=O)O)C(C)C		> 10000 nM		
c1cc(CN2CCCNCCNCCCNCC2)ccc1CN1CCCNCCNCCCNCC1		30 nM		Dose-Dependent Effect
CSCC[C@H](NC(=O)[C@H](CCCCN)NC(=O)[C@H](CCCNC(=N)N)NC(=O)[C@H](CO)NC(=O)[C@H](Cc1c[nH]c2ccccc12)NC(=O)[C@H](CCCNC(=N)N)NC(=O)[C@H](CC(C)C)NC(=O)[C@@H](CO)NC(C)=O)C(=O)N1CCC[C@H]1C(=O)N[C@@H](CS)C(=O)N[C@H](C(=O)N[C@@H](CO)C(=O)O)C(C)C	8620 nM	775 nM	> 100000 nM	

More lines, main results first:

IC50 [1]	IC50 [2]	IC50 [3]	SMILES	inhibition (SUP-T1)
105 nM	129 nM	7300 nM	CSCC[C@H](NC(=O)[C@@H](N)CCSC)C(=O)N[C@@H](CCCNC(=N)N)C(=O)N[C@@H](Cc1c[nH]c2ccccc12)C(=O)N[C@@H](CO)C(=O)N[C@@H](CCCNC(=N)N)C(=O)N[C@@H](CCCCN)C(=O)N[C@@H](CCSC)C(=O)N1CCC[C@H]1C(=O)N[C@@H](CS)C(=O)N[C@H](C(=O)N[C@@H](CO)C(=O)O)C(C)C (H-MMRWSRKMPCVS-OH)	
8730 nM	6670 nM	> 100000 nM	CSCC[C@H](NC(=O)CN)C(=O)N[C@@H](CCCNC(=N)N)C(=O)N[C@@H](Cc1c[nH]c2ccccc12)C(=O)N[C@@H](CO)C(=O)N[C@@H](CCCNC(=N)N)C(=O)N[C@@H](CCCCN)C(=O)N[C@@H](CCSC)C(=O)N1CCC[C@H]1C(=O)N[C@@H](CS)C(=O)N[C@H](C(=O)N[C@@H](CO)C(=O)O)C(C)C (H-GMRWSRKMPCVS-OH)	
2600 nM	> 10000 nM	> 100000 nM	CC(C)C[C@H](NC(=O)[C@@H](NC(=O)[C@@H]1CCCN1C(=O)[C@@H](NC(=O)[C@H](CO)NC(=O)[C@@H](NC(=O)[C@H](CCC(N)=O)NC(=O)[C@@H]1CCCN1C(=O)[C@@H](NC(=O)[C@H](CCCCN)NC(=O)[C@H](CCCCN)NC(=O)[C@@H](NC(=O)[C@H](Cc1ccc(O)cc1)NC(=O)[C@H](CCCNC(=N)N)NC(=O)[C@@H](NC(=O)[C@@H](N)CC(C)C)C(C)C)[C@@H](C)O)C(C)C)C(C)C)[C@@H](C)O)[C@@H](C)O)C(=O)O (H-LVRYTKKVPQVSTPTL-OH)	
	> 10000 nM		CSCC[C@H](NC(C)=O)C(=O)N[C@@H](CC(C)C)C(=O)N[C@@H](CCCNC(=N)N)C(=O)N[C@@H](Cc1c[nH]c2ccccc12)C(=O)N[C@@H](CO)C(=O)N[C@@H](CCCNC(=N)N)C(=O)N[C@@H](CCCCN)C(=O)N[C@@H](CC(C)C)C(=O)N1CCC[C@H]1C(=O)N[C@@H](CS)C(=O)N[C@H](C(=O)N[C@@H](CO)C(=O)O)C(C)C	
991 nM	934 nM	> 100000 nM	CC[C@H](C)[C@H](N)C(=O)N[C@H](CC(C)C)C(=O)N[C@@H](CCCNC(=N)N)C(=O)N[C@@H](Cc1c[nH]c2ccccc12)C(=O)N[C@@H](CO)C(=O)N[C@@H](CCCNC(=N)N)C(=O)N[C@@H](CCCCN)C(=O)N[C@@H](CCSC)C(=O)N1CCC[C@H]1C(=O)N[C@@H](CS)C(=O)N[C@H](C(=O)N[C@@H](CO)C(=O)O)C(C)C	
1440 nM	817 nM	> 100000 nM	CSCC[C@H](NC(=O)[C@H](CCCCN)NC(=O)[C@H](CCCNC(=N)N)NC(=O)[C@H](CO)NC(=O)[C@H](Cc1c[nH]c2ccccc12)NC(=O)[C@H](CCCNC(=N)N)NC(=O)[C@H](CC(C)C)NC(=O)[C@H](N)Cc1ccccc1)C(=O)N1CCC[C@H]1C(=O)N[C@@H](CS)C(=O)N[C@H](C(=O)N[C@@H](CO)C(=O)O)C(C)C	
921 nM	696 nM		CC(C)C[C@H](NC(=O)[C@H](N)C(C)C)C(=O)N[C@@H](CCCNC(=N)N)C(=O)N[C@@H](Cc1c[nH]c2ccccc12)C(=O)N[C@@H](CO)C(=O)N[C@@H](CCCNC(=N)N)C(=O)N[C@@H](CCCCN)C(=O)N[C@@H](CC(C)C)C(=O)N1CCC[C@H]1C(=O)N[C@@H](CS)C(=O)N[C@H](C(=O)N[C@@H](CO)C(=O)O)C(C)C	
